Measurements as given in patent US4909257A, “Method for attaining in vivo tissue-specific contrast by nuclear magnetic resonance imaging” (priority 1989, dated 1990).

Columns and labels:
[1] = system: normal BALB/C mice; assay: Toxicity (acute lethality) after i.v. tail vein injection in mice; assay type: in vivo; settings: 0.2 mL, five BALB/C mice per dose group, 7 days
Description: Solutions were prepared to evaluate the toxicity of the chelators and ferric complexes of the chelators.
A 1.2 M stock ferric solution was prepared by dissolving 32 g of FeCl3 * 6 H2 O in 100 mL of 0.1 N HCl. It was standardized by EDTA titration using Variamine Blue B indicator.
A solution or suspension of 10 mmoles of each ligand in 20 mL of water was 70-80% neutralized by reaction with NaOH. The resulting solution (pH~9) was added dropwise to a solution of 10.1 mmoles of FeCl3 in 10 mL of water. The reaction mixture was adjusted to pH 7.0 with solid NaHCO3 and stirred at 60°-80° C. for two hours. It then was ccentrifuged, and the supernatant was filtered through a 0.22 micron filter. […] Th filtrate was concentrated on a rotary evaporator, the pH adjusted to 7.0, and the volume adjusted to 20 mL.
Tiron was obtained as the sodium salt. An aqueous 0.5 M solution was treated with a 2% excess of FeCl3, and the reaction mixture was worked up as above.
A suspension of 3.6 g (10 mmoles) of EHPG in 15 mL of water was reacted with 17 mL of 2 N NaOH. The resulting dark yellow-orange solution was added dropwise to a solution of 2.7 g […] of FeCl3 * 6 H2 O in 10 mL of water. The reaction mixture was warmed to 60°-80° C. and held at that temperature for 2 hours. The thick orange-red suspension was diluted to 120 mL and heated to 90°-100° C. The hot suspension was filtered through filter aid, and the filtrate was allowed to cool to room temperature.
Rather than crystallizing the product, the pH of the reaction mixture was adjusted to 7.0 with NaHCO3 and filtered. The filtrate was used for subsequent experiments after appropriate volume adjustments and Fe determination.
For each compound at each dose, five normal BALB/C mice weighing 19-22 g were treated with test solution by injection into the tail vein. The injection volumes were approximately 0.2 mL. The behavior and condition of the mice were monitored for 1 week.

[2] = Magnetic resonance imaging contrast enhancement (2 Tesla, coronal spin echo); assay type: in vivo, BALB/C mice; settings: for MRI: increase in signal intensity in the gall bladder: in contrast to Fe-EHPG and Fe-HBED; for MRI: urinary bladder concentration: mouse, in vivo
[3] = Organ distribution and clearance of 59Fe-labeled complexes; assay type: in vivo, BALB/C mice
Description: ^59 Fe was obtained as 0.06 M FeCl3 in 0.5 N HCl; the specific activity was approximately 20 mCi/mmole (1.2 mCi/mL). Labeled commplexes were preared by treating in a Teflon vial 10 uL of ^59 FeCl3 with 25 uL of 2.0×10^-2 M solution of ligand, followed by 0.25 mL of 0.36 M, pH 7.3 Na HEPES buffer and 0.74 mL of water. The reaction mixture was held at 80° C. for 2 hours and then treated with 0.2 mL of 0.12 M solution of Fe-ligand complex. The resulting solution was filtered through a 0.22 u filter. A 0.2 mL dose contained 0.004 mmole of Fe-chelate with 2 uCi of ^59 Fe. ^59 Fe acetate was prepared as above, but without addition of unlabeled carrier Fe acetate.
For each complex shown in FIG. 1, a group of five BALB/C mice were treated as above with 0.2 mmole/Kg of labeled Fe-complex containing approximately 2 uCi of ^59 Fe. The animals were counted immediately after injection and at 2 hours, 1, 2, 4, and 7 days. Whole body counts were obtained using a Nuclear Chicago Tobor chamber gamma counter. Raw counts were background-subtracted and back-decayed to t0, the time of injection. An ^59 Fe standard and background were counted at each time point.
After the appropriate time period, the animals were sacrificed and dissected. Organ weights were measured, and the organs were counted in a gamma counter. Due to its small size, the gall bladder was combined with the small intestine for weighing and counting. An ^59 Fe standard was also counted at each time point. Raw counts were background-subtracted and back-decayed to t0, the time of injection. Activity was computed as a fraction of injected dose per gram of tissue.

[4] = Dose needed for NMR contrast enhancement; assay type: in vivo; settings: doses as low as

Compound: O=C(O)CN(CC(=O)O)[C@@H]1CCCC[C@H]1N(CC(=O)O)CC(=O)O (relative stereo) [CDTA, trans-1,2-cyclohexanediaminotetraacetic acid]
- LD-0 (maximum dose at which no mortality was observed for seven days post injection) [1]: 0.05 mmol/kg
- LD-100 (minimum dose for which 100% mortality was observed for seven days post injection) [1]: 0.5 mmol/kg

Compound: CC(=O)N(O)CCCCCNC(=O)CCC(=O)N(O)CCCCCNC(=O)CCC(=O)N(O)CCCCCN [DF, Desferrioxamine B]
- LD-0 (maximum dose at which no mortality was observed for seven days post injection) [1]: 0.5 mmol/kg
- LD-100 (minimum dose for which 100% mortality was observed for seven days post injection) [1]: 1 mmol/kg

Compound: CC(=O)N([O-])CCCCCNC(=O)CCC(=O)N([O-])CCCCCNC(=O)CCC(=O)N([O-])CCCCCN.[Fe+3] [Fe--DF]
- LD-0 (maximum dose at which no mortality was observed for seven days post injection) [1]: 0.5 mmol/kg
- LD-100 (minimum dose for which 100% mortality was observed for seven days post injection) [1]: 2 mmol/kg
- MRI: increase in signal intensity in the gall bladder [2]: essentially none in the gall bladder
- MRI: urinary bladder concentration [2]: concentrated in the urinary bladder

Compound: O=C([O-])C(NCCNC(C(=O)[O-])c1ccccc1[O-])c1ccccc1[O-].[Fe+3] (stereo not drawn) [Fe--EHPG]
- LD-0 (maximum dose at which no mortality was observed for seven days post injection) [1]: 0.9 mmol/kg
- liver level of 59Fe over time ([3]; 0.2 mmole/Kg labeled Fe-complex, fraction of injected dose per gram of tissue, FIGS. 2 and 3): initially high and then decreased
- large intestine levels at 6 hours ([3]; gut tissue and contents, final time of 6 hours): exceeded all of the other values
- large intestine levels, up to the 2 hour time point ([3]; gut tissue and contents, up to 2 hours): started and remained lower than the liver or small intestine values
- small intestine values over time ([3]; small intestine combined with gall bladder, out to 6 hours): initially low, rose to a maximum at about 1-2 hours, and then decreased out to 6 hours
- time of maximum small intestine value ([3]; small intestine combined with gall bladder, printed as about): 1 to 2 h
- MRI: gall bladder contrast at 50 minutes ([2]; 50 minutes post-contrast): gall bladder contrast remains markedly high
- MRI: liver intensity at 50 minutes ([2]; 50 minutes post-contrast): liver intensity has decreased
- MRI: gall bladder enhancement, later ([2]; gradual, post-contrast): gradually becomes brighter than the surrounding liver
- MRI: urinary bladder concentration [2]: concentrated in the urinary bladder
- MRI: liver enhancement ([2]; post-contrast, initial): first concentrate in the liver
- MRI: gall bladder enhancement, initial ([2]; while agent first concentrates in the liver): gall bladder remains unenhanced
- lowest dose achieving NMR contrast enhancement [4]: 1 mg contrast agent per kilogram weight of the animal

Compound: O=C([O-])CN(CCO)CCN(CC(=O)[O-])CC(=O)[O-].[Fe+3] [Fe--HEDTA]
- LD-100 (minimum dose for which 100% mortality was observed for seven days post injection) [1]: 0.5 mmol/kg

Compound: GD-DTPA [reference compound]
- MRI: increase in signal intensity in the gall bladder [2]: essentially none in the gall bladder
- MRI: urinary bladder concentration [2]: concentrated in the urinary bladder
